Measurements taken from patent publication US9708314B2, “Heterocyclic amide compound” (NISSAN CHEMICAL INDUSTRIES, LTD., priority 2013, dated 2017).

Experiments:
Assay type in all cases: in vivo
[1] = system: transplanted Oryza sativa; test: Test Example 1: effect on crop, application before weed generation in submerged conditions; conditions: Application herbicide amount 320 g/ha; Seventeenth Table
Procedure, shortened: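 Rating, on a six-step scale from almost no effect (0) to almost completely withered (5), was made three weeks after pre-emergence treatment. Treatment was surface application to flooded pots at g/ha rates, with plants kept at 25° C. to 30° C.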

Chenopodium album = test: Test Example 4: herbicidal effect by application to foliage (diluvial soil, plastic box); conditions: Application herbicide amount 320 g/ha; foliage application
Procedure, shortened: (§1)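 Emulsion-formulated compound, diluted to a predetermined g/ha dose, applied by small sprayer to leaves and stems of 14-day-old seedlings grown in sterilized diluvial soil. Effect rated on 0–5 herbicidal-ratio scale three weeks on.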

Amaranthus retroflexus = test: as above; conditions: Application herbicide amount 320 g/ha; foliage application
Procedure, shortened: as §1

Abutilon theophrasti = test: as above; conditions: Application herbicide amount 320 g/ha; foliage application
Procedure, shortened: as §1

Setaria viridis = test: as above; conditions: Application herbicide amount 320 g/ha; foliage application
Procedure, shortened: as §1

Avena fatua = test: as above; conditions: Application herbicide amount 320 g/ha; foliage application
Procedure, shortened: as §1

[2] = system: Echinochloa crus-galli var. crus-galli; test: as above; conditions: Application herbicide amount 320 g/ha; foliage application
Procedure, shortened: as §1

Digitaria ciliaris = test: as above; conditions: Application herbicide amount 320 g/ha; foliage application
Procedure, shortened: as §1

Alopecurus myosuroides = test: as above; conditions: Application herbicide amount 320 g/ha; foliage application
Procedure, shortened: as §1

Lolium multiflorum Lam. = test: as above; conditions: Application herbicide amount 320 g/ha; foliage application
Procedure, shortened: as §1

Stellaria media = test: as above; conditions: Application herbicide amount 320 g/ha; foliage application
Procedure, shortened: as §1

Galium spurium = test: as above; conditions: Application herbicide amount 320 g/ha; foliage application
Procedure, shortened: as §1

Apera spica-venti. = test: as above; conditions: Application herbicide amount 320 g/ha; foliage application
Procedure, shortened: as §1

Veronica persica = test: as above; conditions: Application herbicide amount 320 g/ha; foliage application
Procedure, shortened: as §1

Glycine max = test: Test Example 4: effect on crop by application to foliage (diluvial soil, plastic box); conditions: Application herbicide amount 320 g/ha; foliage application
Procedure, shortened: as §1

Zea mays = test: as above; conditions: Application herbicide amount 320 g/ha; foliage application
Procedure, shortened: as §1

[3] = system: Beta vulgaris ssp. vulgaris; test: as above; conditions: Application herbicide amount 320 g/ha; foliage application
Procedure, shortened: as §1

[4] = system: directly sowed Oryza sativa; test: as above; conditions: Application herbicide amount 320 g/ha; foliage application
Procedure, shortened: as §1

Triticum aestivum = test: as above; conditions: Application herbicide amount 320 g/ha; foliage application
Procedure, shortened: as §1

Brassica campestris L. = test: as above; conditions: Application herbicide amount 320 g/ha; foliage application
Procedure, shortened: as §1

Row | SMILES | a: transplanted Oryza sativa (effect on crop grade) [1] | O (Chenopodium album) herbicidal effect grade (Chenopodium album) | N (Amaranthus retroflexus) herbicidal effect grade (Amaranthus retroflexus) | M (Abutilon theophrasti) herbicidal effect grade (Abutilon theophrasti) | G (Setaria viridis) herbicidal effect grade (Setaria viridis) | I (Avena fatua) herbicidal effect grade (Avena fatua) | H (Echinochloa crus-galli var. crus-galli) herbicidal effect grade [2] | F (Digitaria ciliaris) herbicidal effect grade (Digitaria ciliaris) | J (Alopecurus myosuroides) herbicidal effect grade (Alopecurus myosuroides) | K (Lolium multiflorum Lam.) herbicidal effect grade (Lolium multiflorum Lam.) | P (Stellaria media) herbicidal effect grade (Stellaria media) | Q (Galium spurium) herbicidal effect grade (Galium spurium) | L (Apera spica-venti.) herbicidal effect grade (Apera spica-venti.) | R (Veronica persica) herbicidal effect grade (Veronica persica) | d (Glycine max) effect on crop grade (Glycine max) | c (Zea mays) effect on crop grade (Zea mays) | f (Beta vulgaris ssp. vulgaris) effect on crop grade [3] | b (directly sowed Oryza sativa) effect on crop grade [4] | e (Triticum aestivum) effect on crop grade (Triticum aestivum) | g (Brassica campestris L.) effect on crop grade (Brassica campestris L.)
1 | Cc1nnc(NC(=O)c2ccc(C(F)(F)F)n3c(N4CCSCC4)nnc23)o1 [1-118] | 2 (Herbicidal ratio of 20% or more and less than 40%) | 5 (Herbicidal ratio of 90% or more (almost completely withered)) | 4 (Herbicidal ratio of 70% or more and less than 90%) | 4 (Herbicidal ratio of 70% or more and less than 90%) | 5 (Herbicidal ratio of 90% or more (almost completely withered)) | 3 (Herbicidal ratio of 40% or more and less than 70%) | 5 (Herbicidal ratio of 90% or more (almost completely withered)) | 5 (Herbicidal ratio of 90% or more (almost completely withered)) | 1 (Herbicidal ratio of 5% or more and less than 20%) | 1 (Herbicidal ratio of 5% or more and less than 20%) | 4 (Herbicidal ratio of 70% or more and less than 90%) | 4 (Herbicidal ratio of 70% or more and less than 90%) | 3 (Herbicidal ratio of 40% or more and less than 70%) | 5 (Herbicidal ratio of 90% or more (almost completely withered)) | 4 (Herbicidal ratio of 70% or more and less than 90%) | 0 (Herbicidal ratio of 5% or less (almost no effect)) | 5 (Herbicidal ratio of 90% or more (almost completely withered)) | 4 (Herbicidal ratio of 70% or more and less than 90%) | 1 (Herbicidal ratio of 5% or more and less than 20%) | 5 (Herbicidal ratio of 90% or more (almost completely withered))
2 | Cc1nnc(NC(=O)c2ccc(C(F)(F)F)n3c(N4CC[S+]([O-])CC4)nnc23)o1 [1-119] | 3 (Herbicidal ratio of 40% or more and less than 70%) | 5 (Herbicidal ratio of 90% or more (almost completely withered)) | 5 (Herbicidal ratio of 90% or more (almost completely withered)) | 5 (Herbicidal ratio of 90% or more (almost completely withered)) | 4 (Herbicidal ratio of 70% or more and less than 90%) | 3 (Herbicidal ratio of 40% or more and less than 70%) | 5 (Herbicidal ratio of 90% or more (almost completely withered)) | 5 (Herbicidal ratio of 90% or more (almost completely withered)) | 3 (Herbicidal ratio of 40% or more and less than 70%) | 2 (Herbicidal ratio of 20% or more and less than 40%) | 4 (Herbicidal ratio of 70% or more and less than 90%) | 4 (Herbicidal ratio of 70% or more and less than 90%) | 3 (Herbicidal ratio of 40% or more and less than 70%) | 5 (Herbicidal ratio of 90% or more (almost completely withered)) | 4 (Herbicidal ratio of 70% or more and less than 90%) | 2 (Herbicidal ratio of 20% or more and less than 40%) | 5 (Herbicidal ratio of 90% or more (almost completely withered)) | 3 (Herbicidal ratio of 40% or more and less than 70%) | 3 (Herbicidal ratio of 40% or more and less than 70%) | 5 (Herbicidal ratio of 90% or more (almost completely withered))
3 | Cc1nnc(NC(=O)c2ccc(C(F)(F)F)n3c(N4CCS(=O)(=O)CC4)nnc23)o1 [1-120] | 3 (Herbicidal ratio of 40% or more and less than 70%) | 5 (Herbicidal ratio of 90% or more (almost completely withered)) | 5 (Herbicidal ratio of 90% or more (almost completely withered)) | 4 (Herbicidal ratio of 70% or more and less than 90%) | 5 (Herbicidal ratio of 90% or more (almost completely withered)) | 3 (Herbicidal ratio of 40% or more and less than 70%) | 5 (Herbicidal ratio of 90% or more (almost completely withered)) | 5 (Herbicidal ratio of 90% or more (almost completely withered)) | 3 (Herbicidal ratio of 40% or more and less than 70%) | 3 (Herbicidal ratio of 40% or more and less than 70%) | 5 (Herbicidal ratio of 90% or more (almost completely withered)) | 5 (Herbicidal ratio of 90% or more (almost completely withered)) | 5 (Herbicidal ratio of 90% or more (almost completely withered)) | 5 (Herbicidal ratio of 90% or more (almost completely withered)) | 4 (Herbicidal ratio of 70% or more and less than 90%) | 0 (Herbicidal ratio of 5% or less (almost no effect)) | 5 (Herbicidal ratio of 90% or more (almost completely withered)) | 2 (Herbicidal ratio of 20% or more and less than 40%) | 3 (Herbicidal ratio of 40% or more and less than 70%) | 5 (Herbicidal ratio of 90% or more (almost completely withered))
4 | COCCN(C)c1nnc2c(C(=O)Nc3nnco3)ccc(C(F)(F)F)n12 [1-121] | 3 (Herbicidal ratio of 40% or more and less than 70%) | 5 (Herbicidal ratio of 90% or more (almost completely withered)) | 5 (Herbicidal ratio of 90% or more (almost completely withered)) | 4 (Herbicidal ratio of 70% or more and less than 90%) | 4 (Herbicidal ratio of 70% or more and less than 90%) | 3 (Herbicidal ratio of 40% or more and less than 70%) | 5 (Herbicidal ratio of 90% or more (almost completely withered)) | 5 (Herbicidal ratio of 90% or more (almost completely withered)) | 3 (Herbicidal ratio of 40% or more and less than 70%) | 3 (Herbicidal ratio of 40% or more and less than 70%) | 5 (Herbicidal ratio of 90% or more (almost completely withered)) | 3 (Herbicidal ratio of 40% or more and less than 70%) | 3 (Herbicidal ratio of 40% or more and less than 70%) | 5 (Herbicidal ratio of 90% or more (almost completely withered)) | 4 (Herbicidal ratio of 70% or more and less than 90%) | 2 (Herbicidal ratio of 20% or more and less than 40%) | 5 (Herbicidal ratio of 90% or more (almost completely withered)) | 2 (Herbicidal ratio of 20% or more and less than 40%) | 3 (Herbicidal ratio of 40% or more and less than 70%) | 5 (Herbicidal ratio of 90% or more (almost completely withered))
